For assay [1], the system named is NF-κB. The assay is described as follows: NF-κB/293/GFP reporter cell assay (TNF-α induced GFP expression). In kind it is cell-based. As to conditions: for pEC50: pTRH1-NF-κB-dscGFP reporter, 2 h pretreatment, 20 ng/ml TNF-α 18 h, read-out: NF-KB/293/GFP EC50. As to the method: (§1) Two reporter cell assays were used to determine the ability of the compound of Example 10 to inhibit NF-κB driven transcription. The first assay was a 293-cell based assay with a stably integrated pNF-κB-luc reporter plasmid containing 3 NF-κB promoter elements. The second assay was a 293-cell based assay with a stably integrated pTRH1-NF-κB-dscGFP reporter containing 4 NF-κB promoter elements. Cells were treated with 0, 0.2, 1, 10, 20 and 40 μM of the compound of Example 10 for 2 hours then were induced with 20 ng/ml TNF-α for 18 hours. Following the induction, luminescence or fluorescence was quantified using a Beckman-Coulter 2300 plate reader. […] These values represent the median value generated from three independent experiments. As a control, 0.5% DMSO treated and untreated cells were compared to verify that the compound of Example 10 had no effect on the expression of luciferase or in the readout of the assay. There was a slight decrease in the output from the assay in the DMSO treated population although it was not statistically significant. As a result of the controls, the decrease in activity in the drug treated samples was compared to the DMSO control sample.

The test system of assay [2] is NF-κB. The assay is described as follows: 293/NFkB-luc reporter cell assay (TNF-α induced luciferase expression). In kind it is cell-based. As to conditions: 293 cells; for pEC50: pNF-κB-luc reporter, 2 h pretreatment, 20 ng/ml TNF-α 18 h. How it is done: as §1
Assay [3] addresses T1, p65 (RelA) (Homo sapiens, UniProt Q04206).
T1 construct: purchased Active Motif
The assay can be described thus: TransAM NF-κB family DNA binding ELISA, p65. In kind it is biochemical. As to conditions: binding to NF-κB consensus oligonucleotide. As to the method: The binding activity of NF-κB heterodimer or homodimer subunits from activated nuclear extracts or purified recombinant NF-κB proteins exposed to the drug compounds was evaluated using the TransAM NF-κB Family binding ELISA (Active Motif). 3-5 μg of nuclear extracts from TNFα activated Hela or Raji cells (Active Motif) or 20 ng of purified recombinant proteins (p65 and p50 from Active Motif, p52 from Santa Cruz) were incubated for 1 hour at room temperature with 20 μL drug compounds diluted in Complete Lysis buffer without DTT. Treated samples were then transferred to 30 μL Complete Binding Buffer (with DTT) in microplate wells pre-coated with the NF-κB consensus oligonucleotide. […] The plate was incubated for 1 hour at room temperature with gentle shaking and then washed 3 times with 200 μL 1× Wash Buffer. NF-κB p65, p50, p52, RelB, or c-Rel subunits bound to the plate were detected with 100 μL of the primary antibody (diluted 1:1000 in 1× Antibody Buffer) specific for that subunit. The plate was incubated for 1 hour at room temperature and then washed 3 times with 200 μL 1× Wash Buffer. Next, 100 μL of a HRP conjugated goat anti-rabbit antibody (diluted 1:1,000 in 1× Antibody Buffer) was added to each well. The plate was incubated for 1 hour at room temperature and then washed 4 times with 200 μL 1× Wash Buffer. 100 μL of room temperature Developing Solution was added to each well. The reaction was allowed to develop for 2-10 minutes until a medium dark blue color developed (depending on the subunit activity in the lot of extract or lot of recombinant protein used) and then the reaction was stopped with 100 μL Stop Solution yielding a yellow color. Absorbance was recorded using a Becton-Dickinson DTX 880 Multimode Detector at 450 nm with a reference wavelength subtracted at 620 nm. FIGS. 2, 3 and 4 illustrate the effect of Example 10 on inhibiting RelA, RelB and c-Rel binding to NF-κB sites.

The mark [4] stands for this setting: Homo sapiens, HEK293, 293 cells.

This is an account of results in patent publication US20120046357A1, “Benzamide and Napthamide Derivatives Inhibiting Nuclear Factor-Kappa (B) - (NK-kB)” (Profectus Biosciences, Inc., priority 2009, published 2012).

pEC50, pIC50: −log10 of the molar value. Structures can show the parent of a compound that is named as a salt.

T1 sequence (Q04206 whole entry): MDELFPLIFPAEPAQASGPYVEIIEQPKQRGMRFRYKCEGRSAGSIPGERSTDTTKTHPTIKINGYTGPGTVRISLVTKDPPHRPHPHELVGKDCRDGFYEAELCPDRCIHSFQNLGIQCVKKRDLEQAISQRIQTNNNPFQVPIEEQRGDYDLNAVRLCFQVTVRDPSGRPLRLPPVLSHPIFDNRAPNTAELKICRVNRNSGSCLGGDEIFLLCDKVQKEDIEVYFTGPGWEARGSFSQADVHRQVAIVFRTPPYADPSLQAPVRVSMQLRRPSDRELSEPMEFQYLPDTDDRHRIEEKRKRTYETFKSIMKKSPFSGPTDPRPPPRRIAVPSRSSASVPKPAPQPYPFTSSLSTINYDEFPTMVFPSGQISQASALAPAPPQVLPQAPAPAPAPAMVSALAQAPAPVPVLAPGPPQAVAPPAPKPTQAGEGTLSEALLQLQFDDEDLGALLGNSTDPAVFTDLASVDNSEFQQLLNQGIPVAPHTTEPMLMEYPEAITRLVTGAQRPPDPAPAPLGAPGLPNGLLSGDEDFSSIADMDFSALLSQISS

As to `O=C(NC1=CC(=O)C2OC2C1O)c1ccc(C(F)(F)F)cc1O` (racemic) [Example 1, 2-hydroxy-N-(2-hydroxy-5-oxo-7-oxabicyclo[4.1.0]hept-3-en-3-yl)-4-(trifluoromethyl)benzamide], the results for the pEC50 in assay [1] (setting [4]) and in assay [2] (293/NFkB-luc) were 5.47 and 4.44, respectively. This compound also showed a pIC50 in assay [3] of 4.18.

`O=C(NC1=CC(=O)C2OC2C1O)c1ccc(Cl)cc1O` (racemic) [Example 2, (±)-4-chloro-2-hydroxy-N-(2-hydroxy-5-oxo-7-oxabicyclo[4.1.0]hept-3-en-3-yl)benzamide]: the results for the pEC50 in assay [1] (setting [4]) and in assay [2] (293/NFkB-luc) were 5.15 and 4.92, respectively. Also, the pIC50 in assay [3] was 4.58.

Take `Cc1ccc(C(=O)NC2=CC(=O)C3OC3C2O)c(O)c1` (racemic) [Example 3, (±)-2-hydroxy-N-(2-hydroxy-5-oxo-7-oxabicyclo[4.1.0]hept-3-en-3-yl)-4-methylbenzamide]: the pEC50 was 5.05 in assay [1] (setting [4]) and 4.70 in assay [2] (293/NFkB-luc). Also, in assay [3], the pIC50 was 4.77.

With `Cc1cccc(C(=O)NC2=CC(=O)C3OC3C2O)c1O` (racemic) [Example 4, (±)-2-hydroxy-N-(2-hydroxy-5-oxo-7-oxabicyclo[4.1.0]hept-3-en-3-yl)-3-methylbenzamide], the pEC50 in assay [1] (setting [4]) was 4.74; in assay [2] (293/NFkB-luc) it was 4.72. Moreover, the pIC50 in assay [3] was 4.44.

For the compound `COc1ccc(C(=O)NC2=CC(=O)C3OC3C2O)c(O)c1` (racemic) [Example 5, (±)-2-hydroxy-N-(2-hydroxy-5-oxo-7-oxabicyclo[4.1.0]hept-3-en-3-yl)-4-methoxybenzamide], the values for the pEC50 in assay [1] (setting [4]) and in assay [2] (293/NFkB-luc) were 5.21 and 4.49, respectively. This compound gave a pIC50 in assay [3] of 4.85.

`O=C(NC1=CC(=O)C2OC2C1O)c1cccc(Cl)c1O` (racemic) [Example 6, (±)-3-chloro-2-hydroxy-N-(2-hydroxy-5-oxo-7-oxabicyclo[4.1.0]hept-3-en-3-yl)benzamide]: the pEC50 was 4.85 in assay [1] (setting [4]) and 4.43 in assay [2] (293/NFkB-luc). In assay [3], this compound had a pIC50 of 4.71.

For `O=C(NC1=CC(=O)C2OC2C1O)c1cc2ccccc2cc1O` (racemic) [Example 7, (±)-3-hydroxy-N-(2-hydroxy-5-oxo-7-oxabicyclo[4.1.0]hept-3-en-3-yl)-2-naphthamide], the pEC50 was 5.33 in assay [1] (setting [4]) and 4.68 in assay [2] (293/NFkB-luc). Also, the pIC50 in assay [3] was 3.31.

Take `O=C(NC1=CC(=O)C2OC2C1O)c1ccc2ccccc2c1O` (racemic) [Example 8, (±)-1-hydroxy-N-(2-hydroxy-5-oxo-7-oxabicyclo[4.1.0]hept-3-en-3-yl)-2-naphthamide]: the pEC50 in assay [1] (setting [4]) and in assay [2] (293/NFkB-luc) was 5.15 each time. The pIC50 in assay [3] is 4.34.

On to `O=C(NC1=CC(=O)C2OC2C1O)c1cc(Br)ccc1O` (racemic) [Example 9, (±)-5-bromo-2-hydroxy-N-(2-hydroxy-5-oxo-7-oxabicyclo[4.1.0]hept-3-en-3-yl)benzamide], for which the pEC50 in assay [1] (setting [4]) is 5.28; in assay [2] (293/NFkB-luc), 4.57. In addition, the pIC50 in assay [3] was 4.75.

As to `CN(C)c1ccc(C(=O)NC2=CC(=O)C3OC3C2O)c(O)c1` (racemic) [Example 10, (±)-4-(dimethylamino)-2-hydroxy-N-(2-hydroxy-5-oxo-7-oxabicyclo[4.1.0]hept-3-en-3-yl)benzamide], the pEC50 in assay [1] (setting [4]) is 5.60; in assay [2] (293/NFkB-luc) it was 5.06. In addition, the pIC50 was 5.60 in assay [1] (Homo sapiens, HEK293, median of three independent experiments, 293 cells, 20 ng/ml TNF-α, read-out: median IC50, inhibition of expression of the Green fluorescent protein gene); 5.06 in assay [2] (Homo sapiens, HEK293, median of three independent experiments, 20 ng/ml TNF-α, read-out: median IC50, inhibition of expression of the luciferase gene); 5.41 in assay [3].

As to `COc1ccc2cc(O)c(C(=O)NC3=CC(=O)C4OC4C3O)cc2c1` (racemic) [Example 11, (±)-3-hydroxy-N-(2-hydroxy-5-oxo-7-oxabicyclo[4.1.0]hept-3-en-3-yl)-7-methoxy-2-naphthamide], the values for the pEC50 in assay [1] (setting [4]) and in assay [2] (293/NFkB-luc) were 5.30 and 5.11, respectively. Further, in assay [3], the pIC50 is 3.32.

As for `O=C(NC1=CC(=O)C2OC2C1O)c1cc2cc(Br)ccc2cc1O` (racemic) [Example 15, (±)-7-bromo-3-hydroxy-N-(2-hydroxy-5-oxo-7-oxabicyclo[4.1.0]hept-3-en-3-yl)-2-naphthamide], the pEC50 in assay [1] (setting [4]) is 5.62; in assay [2] (293/NFkB-luc), 5.10. This compound also had a pIC50 in assay [3] of 3.62.

As for `COc1c(C(=O)NC2=CC(=O)C3OC3C2O)ccc(F)c1F` (racemic) [Example 16, (±)-3,4-difluoro-N-(2-hydroxy-5-oxo-7-oxabicyclo[4.1.0]hept-3-en-3-yl)-2-methoxybenzamide], the values for the pEC50 in assay [1] (setting [4]) and in assay [2] (293/NFkB-luc) were 5.59 and 5.06, respectively. Besides, the pIC50 in assay [3] is 5.82.

Take `Cc1ccc(C(C)C)c(C(=O)NC2=CC(=O)C3OC3C2O)c1O` (racemic) [Example 17, (±)-2-hydroxy-N-(2-hydroxy-5-oxo-7-oxabicyclo[4.1.0]hept-3-en-3-yl)-6-isopropyl-3-methylbenzamide]: the values for the pEC50 in assay [1] (setting [4]) and in assay [2] (293/NFkB-luc) were 5.17 and 5.43, respectively. In assay [3], the pIC50 was 3.53.

As to `CN(C)c1ccc(C(=O)NC2=CC(=O)C3OC3C2O)c(O)c1` (racemic) [Example 19, (±)-4-(dimethylamino)-2-hydroxy-N-(2-hydroxy-5-oxo-7-oxabicyclo[4.1.0]hept-3-en-3-yl)benzamide trifluoroacetate], the pEC50 in assay [1] (293 cells, trifluoroacetate) is 5.77; in assay [2] (trifluoroacetate) it was 5.12. Besides, in assay [3], the pIC50 was 5.52.

In the case of `COc1cc(N(C)C)ccc1C(=O)NC1=CC(=O)C2OC2C1O` (racemic) [Example 20, (±)-4-(dimethylamino)-N-(2-hydroxy-5-oxo-7-oxabicyclo[4.1.0]hept-3-en-3-yl)-2-methoxybenzamide], the pEC50 in assay [1] (setting [4]) is 5.89; in assay [2] (293/NFkB-luc), 5.34. The pIC50 in assay [3] is 6.04.
